From patent publication US20200339509A1, “Non-Coordinating Anion Type Indolinium Activators in Aliphatic and Alicyclic Hydrocarbon Solvents” (ExxonMobil Chemical Patents Inc., priority 2019, published 2020)
Where “and” joins values, the source holds several entries; their conditions need not be identical. Equal entries are not always repeated.

Columns and labels:
[1] = Propylene homopolymerization in parallel pressure reactor with the indicated activator; conditions: propylene polymerization; 30 nmol catalyst MCN-1, 1.1 equivalents activator, 100° C., 150 psi propylene
Experimental: Solutions of the metal complexes and activators were prepared in a drybox using toluene or methylcyclohexane. Concentrations were typically 0.2 mmol/L. Tri-n-octylaluminum (TNOAL, neat, AkzoNobel) was used as a scavenger as indicated. Concentration of the TNOAL solution in toluene ranged from 0.5 to 2.0 mmol/L.
Polymerizations were carried out in a parallel pressure reactor according to common laboratory techniques, as generally described in U.S. Pat. Nos. 6,306,658; 6,455,316; 6,489,168; WO 00/09255; consistent with the procedures described by Murphy, V. et al. (2003) “A Fully Integrated High-Throughput Screening Methodology for the Discovery of New Polyolefin Catalysts: Discovery of a New Class of High Temperature Single-Site Group (IV) Copolymerization Catalysts,” J. Am. Chem. Soc., v. 125, pp. 4306-4317, each of which is fully incorporated herein by reference. The experiments were conducted in an inert atmosphere (N2) drybox using autoclaves equipped with an external heater for temperature control, glass inserts (internal volume of reactor=23.5 mL for C2 and C2/C8; 22.5 mL for C3 runs), septum inlets, regulated supply of nitrogen, ethylene and propylene, and equipped with disposable PEEK mechanical stirrers (800 RPM). The autoclaves were prepared by purging with dry nitrogen at 110° C. or 115° C. for 5 hours and then at 25° C. for 5 hours. Although the specific quantities, temperatures, solvents, reactants, reactant ratios, pressures, and other variables are frequently changed from one polymerization run to the next, the following describes a typical polymerization performed in a parallel pressure reactor. […]
The catalyst and activator solutions for the comparative data were all prepared in toluene. […] The resultant polymer was analyzed by Rapid GPC (see below) to determine the molecular weight, by FT-IR (see below) to determine percent octene incorporation, and by DSC (see below) to determine melting point (Tm).
Equivalence is determined based on the mole equivalents relative to the moles of the transition metal in the catalyst complex. […]

[2] = Solubility study of the activators (saturated solution in aliphatic/alicyclic solvent); assay type: physicochemical; conditions: 25° C., concentration of saturated solution; for Solubility limit in MeCy: MeCy (methylcyclohexane)
Experimental: The solubility was determined using a saturated solution of the activator prepared by slowly adding the solvent to a pre-weighed amount of the activator. The final volume was determined as the minimum amount of solvent required to convert the heterogenous mixture into a homogeneous solution. The concentration of the saturated solution is presented in millimoles of activator per liter of solution (mM). Alternatively, a mixture of the activator was prepared by adding the solvent to an excess amount of activator. The resulting slurry was separated from the undissolved solids by decanting the mixture into a tared vial. Solvent was then added dropwise until the mixture became a homogeneous solution. The mass of the final solution was measured and then the solvent was evaporated to dryness to obtain the mass of the activator. The concentration of the saturated solution is presented in millimoles of activator per liter of solution (mM).

| Molecule | activity [1] | Solubility limit in MeCy [2] | Solubility limit in i-hexane [2] |
| --- | --- | --- | --- |
| 1-methylindolinium tetrakis(heptafluoronaphthalen-2-yl)borate [MIH-BF28] | 64 kg/mmol/h and 39 kg/mmol/h and 46 kg/mmol/h | – | – |
| C[NH+](C)c1ccccc1.Fc1c(F)c(F)c([B-](c2c(F)c(F)c(F)c(F)c2F)(c2c(F)c(F)c(F)c(F)c2F)c2c(F)c(F)c(F)c(F)c2F)c(F)c1F [DMAH-BF20, N,N-Dimethylanilinium tetrakis(pentafluorophenyl) borate, reference compound] | – | <0.1 mM | <0.1 mM |
| CCCCCCCCCCC1C[NH+](C)c2ccccc21.Fc1c(F)c(F)c2c(F)c([B-](c3c(F)c(F)c4c(F)c(F)c(F)c(F)c4c3F)(c3c(F)c(F)c4c(F)c(F)c(F)c(F)c4c3F)c3c(F)c(F)c4c(F)c(F)c(F)c(F)c4c3F)c(F)c(F)c2c1F [MDIH-BF28, 3-decyl-1-methylindolin-1-ium BF-28] | – | 10.1 mM | 1.0 mM |
| C[NH+]1CCc2ccccc21.Fc1c(F)c(F)c([B-](c2c(F)c(F)c(F)c(F)c2F)(c2c(F)c(F)c(F)c(F)c2F)c2c(F)c(F)c(F)c(F)c2F)c(F)c1F [MIH-BF20, 1-methylindolinium tetrakis(pentafluorophenyl) borate] | 7 kg/mmol/h | 5.3 mM | <0.1 mM |
| N,N-dimethyl anilinium tetrakis(heptafluoronaphthalen-2-yl)borate [DMAH-BF28, reference compound] | 126 kg/mmol/h and 182 kg/mmol/h and 196 kg/mmol/h and 164 kg/mmol/h | – | – |
